Experiments:
[1] = test system: GTL-16 human gastric cancer cells; experiment: Anti-tumor experiment, GTL-16 xenograft in nude mice; type: in vivo, BALB/c-nu/nu mice; settings: after 14 days, 50 mg/kg qd p.o.
Source text: Anti-tumor experiments: in this example, N1-[4-[[7-[3-(diethoxyphosphorylmethylamino)propoxyl]-6-methoxyl-4-quinolyl]oxyl]-3-fluorophenyl]-N1′-(4-fluorophenyl)cyclopropane-1,1-dicarboxamide obtained from Example 3 is used in the anti-tumor experiments in nude mice animal model of xenograft GTL-16 human gastric cancer cells, the methods and results are as follows:
7-8 weeks old SPF level female BALB/c-nu/nu mice with 16-20 g of body weights are purchased from Experimental Animal Center of Guangdong Province, inspection certificate number: NO:0072659. GTL-16 gastric cancer cells are purchased from the Cell Source Center of Shanghai Institutes for Biological Sciences. RPM 1-1640 cell culture medium, fetal calf serum (FBS) and digestive juice of trypsin are from Gibco Corporation. All the antibiotics are purchased from Sigma Company.
(§1) Firstly culturing the GTL-16 gastric cancer cells: GTL-16 cell line is inoculated in RPM 1-1640 culture solution containing 10% FBS, 100 U/ml penicillin, 100 U/ml streptomycin, and cultured at 37° C., 5% CO2, 100% humidity in a carbon dioxide cell incubator, the cells enter into logarithmic growth phase after 24 hours, after 48 hours of inoculation, the cells grow to cover the bottom of the culture bottle. […]

[2] = Body weight of GTL-16 tumor-bearing nude mice under treatment; type: in vivo, BALB/c-nu/nu mice; settings: after treating for 14 days, 50 mg/kg qd p.o.
Experimental: as §1, with “bottle. Then the GTL-16 cells covering 80% bottom of the culture bottle are digested, 5 minutes after centrifuging at 1000 r/min, the cells are diluted to 2×10^7/ml and implanted subcutaneously in the right anterior axillary fossa with 0.1 ml per mouse.” for “bottle.”

With `CCOP(=O)(CNCCCOc1cc2nccc(Oc3ccc(NC(=O)C4(C(=O)Nc5ccc(F)cc5)CC4)cc3F)c2cc1OC)OCC` [Example 3, N1-[4-[[7-[3-(diethoxyphosphorylmethylamino)propoxyl]-6-methoxyl-4-quinolyl]oxyl]-3-fluorophenyl]-N1′-(4-fluorophenyl)cyclopropane-1,1-dicarboxamide] the “Tumor Growth Inhibition (TGI)” value [1] was 85%, the average tumor volume ([1]; mean±SD, n=8) was 57.1±61.2 mm^3 and the body weight change [2] was less than 5%.

Source: US8933230B2, “Phosphorus-containing group-substituted quinoline, its preparation process, medical composition containing the compounds and application” (priority 2011, dated 2015)
